Here are results for 83 compounds from PubChem BioAssay AID1959 (Broad Institute, 2009).

Calls of active or inactive are those of the source.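 The calls were made as follows: active = growth-inhibition EC50 no more than tenfold above the top tested dose; inconclusive = flat fit between 30% and 70% inhibition, or unreliable fit; inactive = EC50 more than tenfold above the top tested dose.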

The experiment concerns E. coli NEB5alpha growth, BacTiter-Glo luminescence, 4 h. In words: Escherichia coli growth inhibition, dose response, counter-screen for MEX-5/POS-1 RNA-binding inhibitor project, luminescence, NEB5alpha (AID 1959).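 Also: pUC19-transformed ampicillin-resistant cells grown in LB with ampicillin.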
The EC50 is the concentration at which the effect is half-maximal. `CSc1nnc(N2C(=O)C(O)=C(C(=O)c3ccco3)C2c2ccc(F)cc2)s1` (stereo not drawn): the EC50 is > 11 µM (inactive). Take `CN1C(=O)/C(=C\c2ccc(N3CCCCC3)o2)C(=O)NC1=S`: the EC50 was > 11 µM (inactive).

For the compound `COC(=O)CCC(=O)OC1(C)C(=O)C=C2C=C(C3CC3)OC=C2C1=O` (stereo not drawn), the EC50 is > 11 µM (inactive).

For the compound `O=C(CN1CCC(n2nnc3cc(F)ccc32)CC1)NCCc1ccccc1`, the EC50 was > 11 µM (inactive).

Consider `O=C(O)CCCN1C(=O)/C(=C/c2ccc(-c3nc4ccccc4s3)o2)SC1=S`, for which the EC50 is > 11 µM (inactive).

In the case of `Cc1cc(/C=C(/C#N)c2nc3ccccc3[nH]2)c(C)n1-c1cc(C(=O)O)cc(C(=O)O)c1`, the EC50 was > 11 µM (inactive). Turning to `Cc1cc(=O)oc2c(CN3CCC(C)CC3)c(O)c(Cl)cc12`, the EC50 is > 11 µM (inactive). For the compound `CC1=C(C#N)C(=O)NC(=O)/C1=C/c1ccc(-c2ccc(S(N)(=O)=O)cc2)o1`, the EC50 was > 11 µM (inactive).

On to `COc1ccc(-c2cc3ccc(OCC(N)=O)cc3oc2=O)cc1OC`, for which the EC50 is > 11 µM (inactive). With `O=c1[nH]n(-c2ncnc3c2cnn3-c2ccccc2)c(=O)c2ccccc12`, the EC50 was > 11 µM (inactive). As to `O=C(Cc1ccccc1)Nc1ccc(N2CCOCC2)cc1N1CCOCC1`, the EC50 was > 11 µM (inactive). Regarding `O=C(O)CCC(=O)NCc1ccc2[nH]c3c(c2c1)CCCC3`, the EC50 is > 11 µM (inactive). Turning to `CCOC(=O)C1Nc2ccc(C(=O)O)cc2C2C=CCC12` (stereo not drawn), the EC50 is > 11 µM (inactive). Turning to `Cc1nc(N=Nc2ccc(O)cc2)n[nH]1`, the EC50 is > 11 µM (inactive). Next, `CN1C(=O)C(=Cc2ccc(N3CCCCC3)o2)C(=O)N(C)C1=S`: > 11 µM (inactive); `COc1ccc(CC(=O)NNC2=Nc3cccc4cccc2c34)cc1`: > 11 µM (inactive); `COc1cc(C2C(C#N)=C(N)OC3=C2C(=O)CCC3)cc(OC)c1OC(=O)N1CCOCC1` (stereo not drawn): > 11 µM (inactive). As for `O=C1c2ccccc2-c2onc3ccc(NCc4ccco4)c1c23`, the EC50 is > 11 µM (inactive).

Consider `O=C(NNc1ccccc1)C(=O)NNS(=O)(=O)c1ccc([N+](=O)[O-])cc1`, for which the EC50 was > 11 µM (inactive). `Cc1ccc(-c2nnc(Nc3ccc(CC(N)=O)cc3)c3ccccc23)cc1S(N)(=O)=O`: the EC50 is > 11 µM (inactive). For `CCc1ccc(C(=O)NNC(=O)c2ccc(=O)n(C)n2)cc1`, the EC50 is > 11 µM (inactive). Under `COc1ccc(C=C2C(=O)OC(C)(C)OC2=O)cc1OC` stands > 11 µM (inactive); under `COc1ccc(-c2nnc(Nc3nc4c(OC)cccc4s3)o2)c(OC)c1`, > 11 µM (inactive); under `N#CC1=C(N)OC2=C(C(=O)CC(c3ccco3)C2)C1c1ccc(OCc2c(F)cccc2Cl)cc1` (stereo not drawn), > 11 µM (inactive). Take `CCCCC1=CC2=C(c3ccco3)C(=O)C(C)(OC(=O)c3ccc(OC)cc3)C(=O)C2=CN1C1CCCC1` (stereo not drawn): the EC50 is > 11 µM (inactive).

Regarding `CC(C)c1ccc(C2C(C#N)=C(N)N3C(=C2C#N)Sc2ccccc23)cc1` (stereo not drawn), the EC50 was > 11 µM (inactive). For `O=C(/C=C/Nc1ccc([N+](=O)[O-])cc1)c1ccc(Br)cc1`, the EC50 is > 11 µM (inactive). `CC(C)COc1ccc(/C=C2/Sc3ccccc3C2=O)cc1`: the EC50 is > 11 µM (inactive).

For the compound `CCN(CC)C(=O)c1sc2nc(-c3cccs3)cc(-c3cccs3)c2c1N`, the EC50 was > 11 µM (inactive).

Consider `CCOc1cc(/C=C2/C(=O)ON=C2C)ccc1OCc1ccccc1F`, for which the EC50 was > 11 µM (inactive).

As to `COC(=O)c1ccc(-n2c(CCC(=O)O)ccc2-c2ccccc2)cc1`, the EC50 is > 11 µM (inactive). Consider `Cc1cc2nc3ccc(=[N+](C)C)cc-3sc2cc1N`, for which the EC50 was > 11 µM (inactive). On to `CCOC(=O)c1ccc(-c2ccc(C=O)o2)cc1`, for which the EC50 was > 11 µM (inactive). As to `COc1ccc(C2CC(c3cccs3)=NN2c2ccc(C=O)cc2)cc1` (stereo not drawn), the EC50 was > 11 µM (inactive). Regarding `CCCCn1c(O)c(/C=N/NC(=O)c2ccncc2)c(=O)[nH]c1=O`, the EC50 is > 11 µM (inactive). For `COc1ccccc1N1C(=O)C(Cl)=C(Nc2ccccc2O)C1=O`, the EC50 was > 11 µM (inactive). As to `Nc1cc(S(=O)(=O)O)cc([N+](=O)[O-])c1O`, the EC50 is > 11 µM (inactive). Regarding `Cc1cc(/C=C2\C(=O)NC(=O)N(c3cccc(F)c3)C2=O)c(C)n1-c1ccc(C(=O)O)c(Cl)c1`, the EC50 is > 11 µM (inactive). `CC(=O)/C(N=Nc1nc2c([nH]1)c(=O)n(C)c(=O)n2C)=C(\C)O`: the EC50 is > 11 µM (inactive). For `CN(C)c1ccc(-c2nnc(-c3ccc(S(=O)(=O)C(F)F)cc3)o2)cc1`, the EC50 is > 11 µM (inactive). For the compound `CN1C(=O)/C(=C/c2ccc(N3CCCCCC3)o2)C(=O)NC1=S`, the EC50 is > 11 µM (inactive). `COCCCn1c(N)c(-c2nc3ccccc3n2C)c2nc3ccccc3nc21`: the EC50 was > 11 µM (inactive). Turning to `COc1ccc(CCn2c(O)c(C=Nc3ccc(NC(C)=O)cc3)c(=O)[nH]c2=O)cc1OC`, the EC50 is > 11 µM (inactive).

For the compound `COc1ccc(C2C=C(c3ccc(Br)s3)Nc3ncnn32)cc1OC` (stereo not drawn), the EC50 was > 11 µM (inactive). Next, `COc1cc(C2NC(=S)NC(C)=C2C(=O)OC(C)C)ccc1OC(C)C` (stereo not drawn): > 11 µM (inactive). As for `O=C(c1ccco1)[C@@H]1[C@@H]2C(=O)N(c3ccccc3)C(=O)[C@@H]2C2c3ccccc3C=CN21` (stereo partly drawn), the EC50 was > 11 µM (inactive). Consider `CN1CC=C2C(C#N)=C(N)C(C#N)(C#N)C(c3cccc(Cl)c3Cl)C2C1` (stereo not drawn), for which the EC50 is > 11 µM (inactive). Consider `CCCNC(=O)c1ccc2c(=O)c(O)c(-c3cccc(Br)c3)[nH]c2c1`, for which the EC50 was > 11 µM (inactive).

Turning to `CCC(=O)OC1(C)C(=O)C=C2C=C(C3CC3)OC=C2C1=O` (stereo not drawn), the EC50 is > 11 µM (inactive). Under `Cc1ccc(N=Nc2[nH]c3ccccc3c2O)cc1` stands > 11 µM (inactive); under `Cc1ccc2c(c1)C1C=CCC1C(C(=O)NCCCN1CCOCC1)N2` (stereo not drawn), > 11 µM (inactive).

`CN1CCC2(CC1)C(C#N)=C(N)NC(S)=C2C#N`: the EC50 is > 11 µM (inactive). Consider `Cc1nn2c(N3CCOCC3)c3c(nc2c1-c1ccccc1)CCCC3`, for which the EC50 is > 11 µM (inactive). With `Cc1ccc(N=Cc2sc(O)c3ccccc23)c(C)c1`, the EC50 is > 11 µM (inactive). Under `Cc1ccc(NC(=O)CN2C(=O)S/C(=C\c3cc(C)n(-c4cccc(C(=O)O)c4)c3C)C2=O)cc1` stands > 11 µM (inactive).

For the compound `Cc1c(C(=O)O)cccc1-n1c(C)cc(/C=N/NC(=O)c2cc3ccccc3o2)c1C`, the EC50 is > 11 µM (inactive). With `O=C(NCc1ccncc1)C(=O)N/N=C/c1ccccn1`, the EC50 is > 11 µM (inactive). For the compound `O=C1NC(=O)N(c2ccccc2)C(=O)/C1=C\c1ccc2c3c(cccc13)CC2`, the EC50 is > 11 µM (inactive).

Regarding `COc1ccc(N=C(C)c2sc3ccccc3c2O)cc1`, the EC50 was > 11 µM (inactive). Under `C[C@@H]1O[C@@H](Oc2c(-c3cc(O)c(O)c(O)c3)oc3cc(O)cc(O)c3c2=O)[C@H](O)[C@H](O)[C@H]1O` stands > 11 µM (inactive); under `CC1(OC(=O)c2cnc3ccccc3n2)C(=O)C=C2C=C(c3ccc(C#N)cc3)OC=C2C1=O` (stereo not drawn), > 11 µM (inactive); under `O=[N+]([O-])c1cc(-c2ccc([As](=O)(O)O)cc2)ccc1[As](=O)(O)O`, > 11 µM (inactive). On to `NC(=O)CC(NC(=O)Cc1ccc(Cl)cc1)c1ccc(NC2CCCCCC2)c([N+](=O)[O-])c1` (stereo not drawn), for which the EC50 is > 11 µM (inactive). Next, `O=C(O)c1ccccc1-n1c2ccccc2c2ccccc21`: > 11 µM (inactive); `CCOc1ccc(-n2c(O)c(/C=N/c3ccnn3Cc3ccncc3)c3ccccc3c2=O)cc1`: > 11 µM (inactive); `CCCCc1cn([C@@H](CCCCN)C(=O)N2CCNCC2)nn1`: > 11 µM (inactive).

As to `COC(=O)c1ccc(-n2c(C)cc(/C=N/Nc3nc(C)cc(=O)[nH]3)c2C)cc1`, the EC50 was > 11 µM (inactive). For the compound `CCCCN(C(=O)c1ccc([N+](=O)[O-])o1)c1c(N)n(CC(C)C)c(=O)[nH]c1=O`, the EC50 is > 11 µM (inactive).

With `C=CCNC(=S)N1CCN(c2cccc(C(F)(F)F)c2)CC1`, the EC50 was > 11 µM (inactive).

Turning to `Cc1cc([N+](=O)[O-])nn1CC(=O)NNC(=S)Nc1ccc([N+](=O)[O-])cc1`, the EC50 was > 11 µM (inactive). Take `COc1cccc(NC(=O)C(=O)c2cn(CC(=O)N3CCOCC3)c3ccccc23)c1`: the EC50 was > 11 µM (inactive). Under `COc1ccccc1/C=C1/SC(=S)N(CCC(=O)Nc2cccnc2)C1=O` stands > 11 µM (inactive). As to `C/C(O)=c1/ccc2cccc3nc(C)nc1c23`, the EC50 was > 11 µM (inactive). In the case of `COC(=O)c1ccc(-n2c(CCC(=O)O)ccc2-c2ccc(C)cc2)cc1`, the EC50 was > 11 µM (inactive). With `CCOc1ccc(-n2c(O)c(/C=C3\C=Nc4ccccc43)c(=O)[nH]c2=O)cc1`, the EC50 is > 11 µM (inactive).

As to `CC(=NC1CCCC1)c1c(C)[nH]n(-c2nc3ccccc3s2)c1=O`, the EC50 was > 11 µM (inactive).

Take `COC(=O)CCC(=O)OC1(C)C(=O)C2=CN(CCc3ccccn3)C(c3ccc(OC)cc3)=CC2=C(Br)C1=O` (stereo not drawn): the EC50 was > 11 µM (inactive).

With `O=C(CCc1ccc(O)c(O)c1)N/N=C/c1cc2c(cc1[N+](=O)[O-])OCO2`, the EC50 is > 11 µM (inactive).

With `CN1C(=O)/C(=C/c2ccc(-c3ccccc3[N+](=O)[O-])o2)SC1=Nc1ccc(Cl)c(C(=O)O)c1`, the EC50 was > 11 µM (inactive). In the case of `Cc1cc(/C=C(\C#N)C(=O)Nc2ccccc2)c(C)n1-c1ccc(C(=O)O)cc1`, the EC50 was > 11 µM (inactive).

On to `C/C(=N/N=C(\C)c1ccccc1O)c1ccccc1O`, for which the EC50 was > 11 µM (inactive).

For `Cc1cccc(N=Nc2c(O)[nH]c3ccc(Br)cc23)c1`, the EC50 is > 11 µM (inactive). Turning to `CC(=O)c1ccc2c(c1)C1C=CCC1C(c1cc3c(cc1Br)OCO3)N2` (stereo not drawn), the EC50 was > 11 µM (inactive).
